{
  "source": "ChEMBL document CHEMBL3396964",
  "about": "“SAH derived potent and selective EZH2 inhibitors” (Bioorg Med Chem Lett, 2015)",
  "key": {"[1]": {"target": "Histone-lysine N-methyltransferase EZH2 (Homo sapiens, UniProt O75530+Q09028+Q15022+Q15910, Y641N)", "sequence (Q15910 whole entry Y641N, one chain of several)": "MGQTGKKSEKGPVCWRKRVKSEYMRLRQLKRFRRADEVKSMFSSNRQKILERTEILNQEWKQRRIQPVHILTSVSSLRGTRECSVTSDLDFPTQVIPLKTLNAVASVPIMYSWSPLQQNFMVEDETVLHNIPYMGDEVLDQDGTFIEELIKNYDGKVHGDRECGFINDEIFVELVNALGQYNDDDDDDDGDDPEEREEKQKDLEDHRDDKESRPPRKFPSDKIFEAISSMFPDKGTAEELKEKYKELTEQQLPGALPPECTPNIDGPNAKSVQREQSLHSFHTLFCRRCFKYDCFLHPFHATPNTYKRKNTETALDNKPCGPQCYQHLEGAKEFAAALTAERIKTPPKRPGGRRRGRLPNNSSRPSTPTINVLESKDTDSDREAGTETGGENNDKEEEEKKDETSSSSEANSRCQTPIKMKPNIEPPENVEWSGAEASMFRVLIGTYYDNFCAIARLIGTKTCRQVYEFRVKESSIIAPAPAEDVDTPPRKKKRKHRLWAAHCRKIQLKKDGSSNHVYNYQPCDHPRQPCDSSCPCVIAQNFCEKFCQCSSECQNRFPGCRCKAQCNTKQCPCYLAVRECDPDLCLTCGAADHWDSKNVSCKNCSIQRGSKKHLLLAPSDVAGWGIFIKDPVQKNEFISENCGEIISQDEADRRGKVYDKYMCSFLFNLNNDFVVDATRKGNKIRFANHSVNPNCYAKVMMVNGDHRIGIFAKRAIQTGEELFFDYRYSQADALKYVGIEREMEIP", "assay": "Inhibition of N-terminally FLAG-tagged EZH2 Y641N mutant in EZH2/SUZ12/EED/RbAp48 complex (unknown origin) expressed in baculovirus infected in SF9 cells assessed as inhibition of methylation of nucleosomes at H3K27 by scintillation counting in presence of [3H]SAM"}, "[2]": {"target": "T1, Histone-lysine N-methyltransferase EHMT1 (Homo sapiens, UniProt Q9H9B1)", "T1 sequence (Q9H9B1 whole entry)": "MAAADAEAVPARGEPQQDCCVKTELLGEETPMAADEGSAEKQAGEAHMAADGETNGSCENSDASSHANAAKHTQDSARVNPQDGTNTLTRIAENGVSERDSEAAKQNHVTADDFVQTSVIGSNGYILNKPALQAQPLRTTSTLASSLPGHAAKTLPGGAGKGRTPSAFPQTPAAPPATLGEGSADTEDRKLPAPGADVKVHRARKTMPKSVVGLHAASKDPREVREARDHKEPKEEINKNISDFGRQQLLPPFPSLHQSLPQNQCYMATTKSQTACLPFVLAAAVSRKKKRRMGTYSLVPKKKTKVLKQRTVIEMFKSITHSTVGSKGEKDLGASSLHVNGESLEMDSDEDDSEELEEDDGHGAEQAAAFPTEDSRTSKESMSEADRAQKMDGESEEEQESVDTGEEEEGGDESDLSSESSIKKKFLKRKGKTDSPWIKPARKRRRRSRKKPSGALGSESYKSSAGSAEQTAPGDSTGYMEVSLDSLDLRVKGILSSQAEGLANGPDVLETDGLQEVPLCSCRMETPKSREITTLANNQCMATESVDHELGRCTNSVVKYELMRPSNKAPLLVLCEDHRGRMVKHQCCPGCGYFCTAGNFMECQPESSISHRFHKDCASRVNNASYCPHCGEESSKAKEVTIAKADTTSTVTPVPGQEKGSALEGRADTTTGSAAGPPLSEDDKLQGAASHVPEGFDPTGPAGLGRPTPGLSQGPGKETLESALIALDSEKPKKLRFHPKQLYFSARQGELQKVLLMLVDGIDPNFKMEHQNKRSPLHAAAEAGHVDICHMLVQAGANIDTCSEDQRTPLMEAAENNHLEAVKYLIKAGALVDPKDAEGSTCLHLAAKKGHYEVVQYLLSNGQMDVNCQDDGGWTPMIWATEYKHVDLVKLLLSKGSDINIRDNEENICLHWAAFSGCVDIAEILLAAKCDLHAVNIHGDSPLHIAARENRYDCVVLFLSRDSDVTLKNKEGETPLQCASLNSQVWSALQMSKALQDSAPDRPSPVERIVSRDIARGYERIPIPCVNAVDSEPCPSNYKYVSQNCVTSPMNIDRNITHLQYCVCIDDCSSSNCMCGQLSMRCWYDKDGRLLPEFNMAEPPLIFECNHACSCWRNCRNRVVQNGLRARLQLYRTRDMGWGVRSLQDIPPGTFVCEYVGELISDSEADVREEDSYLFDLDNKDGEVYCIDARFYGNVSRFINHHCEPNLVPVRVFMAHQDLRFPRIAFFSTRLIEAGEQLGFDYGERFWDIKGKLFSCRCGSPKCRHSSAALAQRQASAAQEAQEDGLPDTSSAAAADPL", "assay": "Inhibition of EHMT1 (unknown origin) by HMT assay"}, "[3]": {"target": "Histone-lysine N-methyltransferase 2A (Homo sapiens, UniProt Q03164)", "sequence (Q03164 1-2718 limits assumed)": "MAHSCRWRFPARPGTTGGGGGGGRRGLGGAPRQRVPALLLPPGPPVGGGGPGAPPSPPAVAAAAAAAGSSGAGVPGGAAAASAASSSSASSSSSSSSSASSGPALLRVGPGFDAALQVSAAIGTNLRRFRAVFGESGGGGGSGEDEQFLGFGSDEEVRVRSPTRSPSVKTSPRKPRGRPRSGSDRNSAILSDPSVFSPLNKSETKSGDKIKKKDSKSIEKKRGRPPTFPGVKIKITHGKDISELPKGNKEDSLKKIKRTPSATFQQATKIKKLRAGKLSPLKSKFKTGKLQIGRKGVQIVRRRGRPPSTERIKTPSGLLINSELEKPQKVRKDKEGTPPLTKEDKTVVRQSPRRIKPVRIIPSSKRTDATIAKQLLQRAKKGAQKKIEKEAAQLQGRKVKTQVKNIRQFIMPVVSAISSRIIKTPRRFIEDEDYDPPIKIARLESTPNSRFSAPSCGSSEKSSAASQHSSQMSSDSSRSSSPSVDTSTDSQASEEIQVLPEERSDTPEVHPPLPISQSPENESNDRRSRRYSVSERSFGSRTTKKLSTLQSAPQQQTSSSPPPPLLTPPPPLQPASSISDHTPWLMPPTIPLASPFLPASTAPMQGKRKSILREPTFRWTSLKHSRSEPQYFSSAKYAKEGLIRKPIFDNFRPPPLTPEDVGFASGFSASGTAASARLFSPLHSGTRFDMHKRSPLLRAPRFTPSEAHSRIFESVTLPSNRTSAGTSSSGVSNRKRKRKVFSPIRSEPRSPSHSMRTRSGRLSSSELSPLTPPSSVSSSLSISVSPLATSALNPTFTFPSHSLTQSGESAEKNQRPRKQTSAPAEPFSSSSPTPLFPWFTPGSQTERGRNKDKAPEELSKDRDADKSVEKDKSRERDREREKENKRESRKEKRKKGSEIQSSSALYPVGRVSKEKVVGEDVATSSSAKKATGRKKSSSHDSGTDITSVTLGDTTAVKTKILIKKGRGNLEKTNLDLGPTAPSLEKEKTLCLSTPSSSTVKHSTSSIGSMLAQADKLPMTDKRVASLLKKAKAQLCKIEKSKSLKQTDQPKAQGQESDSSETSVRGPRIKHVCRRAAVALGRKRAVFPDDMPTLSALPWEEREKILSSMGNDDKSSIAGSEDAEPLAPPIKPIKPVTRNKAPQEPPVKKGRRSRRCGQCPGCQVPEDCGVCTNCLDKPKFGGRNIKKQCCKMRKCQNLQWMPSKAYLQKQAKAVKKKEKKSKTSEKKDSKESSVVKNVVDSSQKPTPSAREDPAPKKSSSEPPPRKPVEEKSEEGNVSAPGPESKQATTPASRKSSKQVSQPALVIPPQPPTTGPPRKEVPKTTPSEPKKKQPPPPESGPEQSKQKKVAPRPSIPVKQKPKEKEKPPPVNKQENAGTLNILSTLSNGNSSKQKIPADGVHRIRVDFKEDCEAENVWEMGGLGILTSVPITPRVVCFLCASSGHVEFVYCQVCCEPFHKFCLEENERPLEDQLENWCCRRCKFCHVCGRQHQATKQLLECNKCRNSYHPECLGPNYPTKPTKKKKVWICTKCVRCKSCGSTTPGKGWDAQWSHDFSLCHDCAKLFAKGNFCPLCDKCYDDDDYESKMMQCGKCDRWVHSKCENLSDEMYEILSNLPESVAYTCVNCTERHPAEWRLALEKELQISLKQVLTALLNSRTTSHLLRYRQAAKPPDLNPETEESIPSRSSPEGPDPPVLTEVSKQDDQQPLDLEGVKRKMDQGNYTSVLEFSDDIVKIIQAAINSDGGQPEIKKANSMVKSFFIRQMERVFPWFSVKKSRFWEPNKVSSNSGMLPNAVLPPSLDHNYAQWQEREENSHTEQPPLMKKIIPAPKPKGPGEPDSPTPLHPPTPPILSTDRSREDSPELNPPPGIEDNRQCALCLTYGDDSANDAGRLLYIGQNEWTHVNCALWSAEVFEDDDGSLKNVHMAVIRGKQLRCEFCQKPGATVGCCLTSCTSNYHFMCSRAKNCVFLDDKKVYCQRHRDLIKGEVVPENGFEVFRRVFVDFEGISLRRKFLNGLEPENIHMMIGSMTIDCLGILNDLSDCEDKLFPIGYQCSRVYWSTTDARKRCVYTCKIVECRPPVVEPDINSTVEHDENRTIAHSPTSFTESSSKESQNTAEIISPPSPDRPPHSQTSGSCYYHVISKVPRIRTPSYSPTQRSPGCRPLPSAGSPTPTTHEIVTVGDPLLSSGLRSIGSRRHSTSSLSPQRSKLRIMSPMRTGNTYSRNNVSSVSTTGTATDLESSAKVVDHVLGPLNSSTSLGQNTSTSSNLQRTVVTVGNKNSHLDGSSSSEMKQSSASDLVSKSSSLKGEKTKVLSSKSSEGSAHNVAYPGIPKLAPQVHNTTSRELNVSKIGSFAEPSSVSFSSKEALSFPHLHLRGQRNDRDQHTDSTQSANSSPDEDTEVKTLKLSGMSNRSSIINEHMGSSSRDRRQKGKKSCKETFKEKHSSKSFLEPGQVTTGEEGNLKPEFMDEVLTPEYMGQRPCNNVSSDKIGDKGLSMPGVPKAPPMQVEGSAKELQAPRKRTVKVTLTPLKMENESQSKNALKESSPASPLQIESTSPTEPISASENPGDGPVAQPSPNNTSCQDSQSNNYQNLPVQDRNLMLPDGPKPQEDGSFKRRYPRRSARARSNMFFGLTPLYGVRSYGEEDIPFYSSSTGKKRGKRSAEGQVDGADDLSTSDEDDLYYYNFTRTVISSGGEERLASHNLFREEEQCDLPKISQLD", "sequence (Q03164 2719-3969 limits assumed)": "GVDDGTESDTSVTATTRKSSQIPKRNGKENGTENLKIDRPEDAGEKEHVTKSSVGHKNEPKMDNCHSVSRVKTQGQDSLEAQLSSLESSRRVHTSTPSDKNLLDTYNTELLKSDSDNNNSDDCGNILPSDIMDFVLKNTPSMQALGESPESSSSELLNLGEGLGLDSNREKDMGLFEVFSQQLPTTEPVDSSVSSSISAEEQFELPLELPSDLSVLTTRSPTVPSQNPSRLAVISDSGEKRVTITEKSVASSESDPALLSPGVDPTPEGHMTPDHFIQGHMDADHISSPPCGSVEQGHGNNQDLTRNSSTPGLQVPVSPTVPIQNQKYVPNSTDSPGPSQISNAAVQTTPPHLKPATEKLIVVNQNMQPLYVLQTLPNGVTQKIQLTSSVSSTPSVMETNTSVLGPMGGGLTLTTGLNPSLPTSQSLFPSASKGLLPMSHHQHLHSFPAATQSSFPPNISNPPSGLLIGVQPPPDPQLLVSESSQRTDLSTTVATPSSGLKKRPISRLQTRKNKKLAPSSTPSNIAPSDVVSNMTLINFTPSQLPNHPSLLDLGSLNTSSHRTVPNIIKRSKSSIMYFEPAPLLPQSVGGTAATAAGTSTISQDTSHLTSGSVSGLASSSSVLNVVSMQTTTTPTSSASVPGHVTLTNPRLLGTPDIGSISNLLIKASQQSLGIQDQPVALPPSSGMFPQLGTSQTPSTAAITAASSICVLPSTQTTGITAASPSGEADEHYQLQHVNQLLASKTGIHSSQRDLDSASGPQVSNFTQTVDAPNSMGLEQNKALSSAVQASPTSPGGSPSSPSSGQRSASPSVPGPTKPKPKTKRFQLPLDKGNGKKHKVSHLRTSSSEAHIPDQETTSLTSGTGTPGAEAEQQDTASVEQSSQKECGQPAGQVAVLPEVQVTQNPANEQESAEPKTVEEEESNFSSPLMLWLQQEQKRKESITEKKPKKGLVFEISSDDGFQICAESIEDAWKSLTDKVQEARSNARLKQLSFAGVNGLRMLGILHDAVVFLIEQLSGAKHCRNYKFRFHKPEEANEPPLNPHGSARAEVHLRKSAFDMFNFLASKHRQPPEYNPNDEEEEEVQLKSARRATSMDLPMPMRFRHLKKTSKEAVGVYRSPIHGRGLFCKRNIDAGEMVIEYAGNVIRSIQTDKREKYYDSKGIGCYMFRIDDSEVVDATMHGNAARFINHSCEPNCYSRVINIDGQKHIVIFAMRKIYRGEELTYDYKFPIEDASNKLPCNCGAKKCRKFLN", "assay": "Inhibition of MLL (unknown origin) by HMT assay"}, "[4]": {"target": "Histone-lysine N-methyltransferase SUV39H2 (Homo sapiens, UniProt Q9H5I1)", "assay": "Inhibition of SUV39H2 (unknown origin) by HMT assay"}, "[5]": {"target": "N-lysine methyltransferase SMYD2 (Homo sapiens, UniProt Q9NRG4)", "sequence (Q9NRG4 whole entry)": "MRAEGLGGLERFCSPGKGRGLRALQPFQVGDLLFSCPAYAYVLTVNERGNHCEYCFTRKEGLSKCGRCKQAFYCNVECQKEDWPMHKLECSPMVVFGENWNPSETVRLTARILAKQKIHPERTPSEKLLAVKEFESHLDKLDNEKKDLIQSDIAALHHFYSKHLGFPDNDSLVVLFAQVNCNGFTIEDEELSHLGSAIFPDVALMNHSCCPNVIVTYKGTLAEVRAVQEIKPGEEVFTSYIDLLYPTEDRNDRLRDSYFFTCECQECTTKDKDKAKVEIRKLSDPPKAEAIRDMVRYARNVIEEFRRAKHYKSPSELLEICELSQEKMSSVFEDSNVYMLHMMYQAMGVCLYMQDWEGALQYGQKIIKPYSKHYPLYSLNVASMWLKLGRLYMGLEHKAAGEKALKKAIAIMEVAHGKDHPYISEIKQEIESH", "assay": "Inhibition of SMYD2 (unknown origin) at 10 uM by HMT assay"}, "[6]": {"target": "T2, Histone-lysine N-methyltransferase SETD7 (Homo sapiens) (UniProt Q8WTS6)", "T2 sequence (whole entry)": "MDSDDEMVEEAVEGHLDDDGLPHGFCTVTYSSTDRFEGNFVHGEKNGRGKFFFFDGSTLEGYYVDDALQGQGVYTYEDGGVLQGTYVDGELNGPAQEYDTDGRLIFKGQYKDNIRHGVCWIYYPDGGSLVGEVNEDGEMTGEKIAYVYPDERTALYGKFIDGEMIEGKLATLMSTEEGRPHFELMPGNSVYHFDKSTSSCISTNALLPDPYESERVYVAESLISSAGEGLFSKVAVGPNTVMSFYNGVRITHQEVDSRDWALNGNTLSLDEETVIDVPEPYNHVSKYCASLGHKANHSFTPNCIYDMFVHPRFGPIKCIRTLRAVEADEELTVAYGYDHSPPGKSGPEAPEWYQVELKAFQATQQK", "details": "10 uM", "description": "Inhibition of SETD7 (unknown origin) at 10 uM by HMT assay"}},
  "note": "Activity calls are given as the source filed them. The calls are words filed in the database; no cut-off is given here.",
  "data": [
    {"molecule": "Nc1ncnc2c1ncn2[C@@H]1O[C@H](CSCC[C@H](N)C(=O)NCc2cc(-c3ccccc3)[nH]n2)[C@@H](O)[C@H]1O", "values": [
      {"measurement": "IC50", "setting": "[1]", "result": 0.07, "unit": "µM"},
      {"measurement": "IC50", "setting": "[2]", "result": "> 30", "unit": "µM"},
      {"measurement": "IC50", "setting": "[3]", "result": 18.5, "unit": "µM"},
      {"measurement": "IC50", "setting": "[4]", "result": "> 100", "unit": "µM"},
      {"measurement": "inhibition", "setting": "[5]", "result": "inactive"},
      {"measurement": "inhibition", "setting": "[6]", "result": "inactive"}
    ]}
  ]
}
